The values that follow are results of earlier work, collected in patent publication US20110165235A1, “DIRECTLY PRESSED ALISKIREN TABLETS” (ratiopharm GmbH, priority 2008, published 2011).

The conditions of the series: BCS classification.

`COCCCOc1cc(C[C@@H](C[C@H](N)[C@@H](O)C[C@H](C(=O)NCC(C)(C)C(N)=O)C(C)C)C(C)C)ccc1OC` [Aliskiren, (2S,4S,5S,7S)-5-amino-N-(2-carbamoyl-2-methyl-propyl)-4-hydroxy-7-{[4-methoxy-3-(3-methoxypropoxy)phenyl]methyl}-8-methyl-2-propan-2-yl-nonanamide]: the solubility result was “high”.
